Experimental data published in the supplement of paper PMC4977894.
± gives the standard deviation of the averaged measurements.

Legend:
[1] = system: Homo sapiens (human subject panel, olfactory perception); assay: perceived odor intensity rating (rating 0-100); higher = stronger perceived smell
Method: (§1)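 Human olfactory psychophysics. 55 healthy subjects (after excluding 6 low performers) sniffed 1 mL of each odorant diluted in paraffin oil (vials, two dilutions per molecule, 20 molecules presented twice). Each subject rated intensity, pleasantness and familiarity on a 0-100 slider, starting at 50 and required to move. Ratings were given only when the subject reported detecting a smell; per-subject ratings are averaged over subjects.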

[2] = system: Homo sapiens (human subject panel, olfactory perception); assay: perceived odor pleasantness rating (rating 0-100); higher = more pleasant
Method: as §1

[3] = system: Homo sapiens (human subject panel, olfactory perception); assay: perceived odor familiarity rating (rating 0-100); higher = more familiar
Method: as §1

[4] = odor dilution in paraffin oil: 1/1,000
[5] = odor dilution in paraffin oil: 1/100,000
[6] = odor dilution in paraffin oil: 1/10,000,000
[7] = odor dilution in paraffin oil: 1/10

SMILES | perceived odor intensity rating [1, 4] | perceived odor intensity rating [1, 5] | perceived odor pleasantness rating [2, 4] | perceived odor pleasantness rating [2, 5] | perceived odor familiarity rating [3, 4] | perceived odor familiarity rating [3, 5] | perceived odor intensity rating [1, 6] | perceived odor pleasantness rating [2, 6] | perceived odor familiarity rating [3, 6] | perceived odor intensity rating [1, 7] | perceived odor pleasantness rating [2, 7] | perceived odor familiarity rating [3, 7]
CCC(=O)OCCCc1ccccc1 [3-Phenylpropyl propionate] | 62.9 ± 26 | 28.4 ± 34 | 36.4 ± 28 | 49.8 ± 27 | 49.1 ± 28 | 38.6 ± 32 |  |  |  |  |  | 
CCCC(O)CC (stereo not given) [3-hexanol (replicate)] | 68.9 ± 28 | 30.2 ± 30 | 32.3 ± 22 | 46.6 ± 22 | 50.5 ± 34 | 34.2 ± 26 |  |  |  |  |  | 
CCCC(O)CC (stereo not given) [3-hexanol] | 71.3 ± 28 | 29.7 ± 30 | 35.1 ± 26 | 49.1 ± 24 | 43.1 ± 31 | 28.1 ± 23 |  |  |  |  |  | 
CCCCCC(=O)CC [3-octanone] | 69.7 ± 25 | 26 ± 27 | 50.9 ± 31 | 53.3 ± 23 | 56.4 ± 28 | 35.9 ± 30 |  |  |  |  |  | 
CCC(O)CC [3-pentanol] | 76.4 ± 18 | 39.4 ± 35 | 34 ± 26 | 33.4 ± 25 | 58.3 ± 32 | 44 ± 33 |  |  |  |  |  | 
O=C1CCSC1 [4,5-Dihydro-3(2H)-thiophenone] | 85.8 ± 20 | 37 ± 34 | 21.4 ± 26 | 33.2 ± 22 | 52.9 ± 34 | 30.8 ± 34 |  |  |  |  |  | 
CC1=C(O)C(=O)OC1C (stereo not given) [4,5-Dimethyl-3-hydroxy-2,5-dihydrofuran-2-one] |  | 72.6 ± 21 |  | 59.5 ± 29 |  | 64.4 ± 25 | 41.8 ± 30 | 46.1 ± 26 | 42.7 ± 32 |  |  | 
CC(=O)CCc1ccc(O)cc1 [4-(4-Hydroxyphenyl)-2-butanone] | 46.3 ± 30 |  | 50.6 ± 24 |  | 46.1 ± 28 |  |  |  |  | 50.2 ± 29 | 49.6 ± 27 | 40.1 ± 29
C=CCc1ccc(OC)cc1 [4-Allylanisole] | 60.8 ± 26 | 22.3 ± 29 | 60.8 ± 24 | 54.5 ± 24 | 64.2 ± 28 | 28.7 ± 27 |  |  |  |  |  | 
CCOc1ccc(C=O)cc1 [4-Ethoxybenzaldehyde] | 65.2 ± 25 | 34.2 ± 28 | 67.4 ± 26 | 66.4 ± 24 | 58.5 ± 30 | 47.2 ± 31 |  |  |  |  |  | 
CCc1ccc(O)c(OC)c1 [4-Ethylguaiacol] | 78 ± 17 | 69.4 ± 23 | 41.7 ± 27 | 43.8 ± 24 | 57.6 ± 32 | 52.1 ± 32 |  |  |  |  |  | 
CCCC(=O)CCC [4-Heptanone] | 69.3 ± 24 | 34.7 ± 31 | 49.3 ± 23 | 51.6 ± 24 | 55.4 ± 27 | 41.1 ± 29 |  |  |  |  |  | 
O=Cc1ccc(O)cc1 [4-Hydroxybenzaldehyde] | 37.6 ± 27 |  | 51.8 ± 23 |  | 39.1 ± 31 |  |  |  |  | 51.6 ± 29 | 49.2 ± 24 | 39.5 ± 25
O=C1CCCO1 [4-Hydroxybutanoic acid lactone] | 47 ± 34 | 19.9 ± 24 | 28.9 ± 19 | 46.1 ± 25 | 44.6 ± 31 | 28.2 ± 30 |  |  |  |  |  | 
CC(C)c1ccc(CO)cc1 [4-Isopropylbenzyl alcohol] | 31.9 ± 32 |  | 40.4 ± 25 |  | 33.1 ± 29 |  |  |  |  | 71.6 ± 22 | 31.8 ± 23 | 46.4 ± 31
CC(=O)OCCc1scnc1C [4-Methyl-5-thiazoleethanol acetate] | 66.3 ± 26 | 38 ± 30 | 34.4 ± 25 | 41.9 ± 24 | 53.8 ± 31 | 45.9 ± 32 |  |  |  |  |  | 
Cc1ncsc1CCO [4-Methyl-5-thiazoleethanol] | 73.1 ± 20 | 48.6 ± 29 | 29.6 ± 25 | 37.8 ± 24 | 56.7 ± 32 | 39.9 ± 28 |  |  |  |  |  | 
C=Cc1scnc1C [4-Methyl-5-vinylthiazole] | 80.5 ± 21 | 43.5 ± 32 | 21.3 ± 22 | 38.6 ± 27 | 41.4 ± 34 | 40.3 ± 33 |  |  |  |  |  | 

SMILES | perceived odor intensity rating [1, 4] | perceived odor intensity rating [1, 5] | perceived odor pleasantness rating [2, 4] | perceived odor pleasantness rating [2, 5] | perceived odor familiarity rating [3, 4] | perceived odor familiarity rating [3, 5] | perceived odor intensity rating [1, 6] | perceived odor pleasantness rating [2, 6] | perceived odor familiarity rating [3, 6] | perceived odor intensity rating [1, 7] | perceived odor pleasantness rating [2, 7] | perceived odor familiarity rating [3, 7]
COc1ccc(C)cc1 [4-Methylanisole] | 70.5 ± 21 | 44.8 ± 31 | 47.7 ± 28 | 56.3 ± 28 | 48.2 ± 31 | 50.2 ± 28 |  |  |  |  |  | 
CC1CCC(=O)CC1 [4-Methylcyclohexanone] | 60.9 ± 31 | 32.5 ± 28 | 36.9 ± 25 | 64.6 ± 20 | 46 ± 32 | 49.2 ± 28 |  |  |  |  |  | 
Cc1ccnc2ccccc12 [4-Methylquinoline] |  | 38.7 ± 30 |  | 40.5 ± 21 |  | 33.1 ± 30 | 20.8 ± 22 | 49.5 ± 24 | 34.8 ± 28 |  |  | 
Cc1cscn1 [4-Methylthiazole] | 60.7 ± 30 | 57.3 ± 28 | 29.4 ± 27 | 32.7 ± 20 | 46.8 ± 31 | 44.4 ± 29 |  |  |  |  |  | 
CC(C)CCC(=O)O [4-Methylvaleric acid] |  | 58.6 ± 30 |  | 20.8 ± 22 |  | 41.8 ± 30 | 30.9 ± 30 | 43.3 ± 20 | 32.5 ± 25 |  |  | 
CC1=CC(=O)CC(C)(C)C1=O [4-Oxoisophorone] | 49.2 ± 26 | 34 ± 28 | 47.7 ± 25 | 55 ± 21 | 49.7 ± 28 | 44.2 ± 28 |  |  |  |  |  | 
C=CCCC(=O)O [4-Pentenoic acid] | 80.5 ± 22 | 65 ± 29 | 14.1 ± 18 | 15.7 ± 18 | 48.1 ± 34 | 44.9 ± 32 |  |  |  |  |  | 
C=CCc1ccc(OC)c(OC)c1 [4-allyl-1,2-dimethoxy benzene] | 37.5 ± 29 | 17.2 ± 21 | 54.4 ± 25 | 55.3 ± 24 | 45.6 ± 30 | 39.8 ± 29 |  |  |  |  |  | 
COc1cc(C(=O)O)ccc1O [4-hydroxy-3-methoxybenzoic acid] | 28.8 ± 29 |  | 44.1 ± 23 |  | 45.4 ± 24 |  |  |  |  | 65.3 ± 26 | 54.7 ± 28 | 51.9 ± 29
CCCc1ccc(O)cc1 [4-propylphenol] | 67.3 ± 24 | 38.2 ± 30 | 36.7 ± 24 | 47.7 ± 21 | 39 ± 33 | 43.6 ± 27 |  |  |  |  |  | 
c1cnc2c(n1)CCCC2 [5,6,7,8-Tetrahydroquinoxaline] |  | 68.2 ± 24 |  | 55.6 ± 25 |  | 65.5 ± 28 | 40.3 ± 31 | 42.9 ± 27 | 44.4 ± 26 |  |  | 
CCC1OC(=O)C(O)=C1C (stereo not given) [5-Ethyl-3-hydroxy-4-methyl-2(5H)-furanone (replicate)] |  | 44.9 ± 30 |  | 65.2 ± 22 |  | 54.2 ± 32 | 58.9 ± 32 | 67.5 ± 26 | 64.6 ± 32 |  |  | 
CCC1OC(=O)C(O)=C1C (stereo not given) [5-Ethyl-3-hydroxy-4-methyl-2(5H)-furanone] |  | 36.6 ± 31 |  | 54.4 ± 22 |  | 44.9 ± 29 | 48.1 ± 32 | 64 ± 22 | 59.7 ± 34 |  |  | 
C=CCCCCO [5-Hexen-1-ol] | 62.2 ± 32 | 26 ± 25 | 48 ± 28 | 49.2 ± 23 | 43.7 ± 33 | 42.6 ± 30 |  |  |  |  |  | 
C/C=C/C(=O)[C@H](C)CC [5-Methyl-2-hepten-4-one] |  | 69.2 ± 27 |  | 45.3 ± 28 |  | 45.1 ± 31 | 26 ± 28 | 64.7 ± 25 | 40.8 ± 31 |  |  | 
Cc1ccc(C=O)o1 [5-Methylfurfural] | 59 ± 31 | 17.9 ± 24 | 59.3 ± 24 | 45.8 ± 23 | 52.6 ± 31 | 36 ± 29 |  |  |  |  |  | 
Cc1cccc2nccnc12 [5-Methylquinoxaline] |  | 49 ± 31 |  | 45.7 ± 27 |  | 51.8 ± 31 | 19.4 ± 29 | 48.6 ± 30 | 23.7 ± 32 |  |  | 
